Measurements from PubChem BioAssay AID330 (DTP/NCI, 2004).
“And” between values parts separate entries of the source, which are not always exact repeats. Identical values can stand only once. Inconclusive results and toxic doses are left out. Rule for the calls: active = survival T/C of 150% or more; inactive = T/C below 125% in these data. Square brackets hold non-standard residues; d marks the D form. Peptide text beside a SMILES is read from it. ξ: configuration not given here. ξF = NC(Cc1ccccc1)C(=O)O

System: P388 leukemia ip, CD2F1 mice, survival T/C
Assay: NCI In Vivo Anticancer Drug Screen. Data for tumor model P388 Leukemia (intraperitoneal) in CD2F1 (CDF1) mice
Settings: endpoint: median survival time, higher = longer survival
Procedure, shortened: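 Mice carrying the transplanted tumor received test compound or vehicle. Survival was recorded in each group, and the value is the treated-group measurement divided by that of the vehicle-treated control group.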

[1] = dose: 50.0 mg/kg/injection, schedule: Q01DX009 (ip), vehicle: Klucel (hydroxypropylcellulose) (HPC)
[2] = dose: 200.0 mg/kg/injection, schedule: Q01DX009 (ip), vehicle: Klucel (hydroxypropylcellulose) (HPC)
[3] = dose: 200.0 mg/kg/injection, schedule: Q01DX009 (ip), vehicle: saline with Tween-80
[4] = dose: 50.0 mg/kg/injection, schedule: Q01DX005 (ip), vehicle: Klucel (hydroxypropylcellulose) (HPC)
[5] = dose: 100.0 mg/kg/injection, schedule: Q01DX005 (ip), vehicle: Klucel (hydroxypropylcellulose) (HPC)
[6] = dose: 100.0 mg/kg/injection, schedule: Q01DX009 (ip), vehicle: saline with Tween-80
[7] = dose: 100.0 mg/kg/injection, schedule: Q04DX003 (ip), vehicle: saline with Tween-80
[8] = dose: 200.0 mg/kg/injection, schedule: Q04DX003 (ip), vehicle: saline with Tween-80
[9] = dose: 400.0 mg/kg/injection, schedule: Q01DX009 (ip), vehicle: saline with Tween-80
[10] = dose: 400.0 mg/kg/injection, schedule: Q04DX003 (ip), vehicle: saline with Tween-80
[11] = dose: 60.0 mg/kg/injection, schedule: Q01DX005 (ip), vehicle: saline with Tween-80
[12] = dose: 120.0 mg/kg/injection, schedule: Q01DX005 (ip), vehicle: saline with Tween-80
[13] = dose: 240.0 mg/kg/injection, schedule: Q01DX005 (ip), vehicle: saline with Tween-80
[14] = dose: 50.0 mg/kg/injection, schedule: Q01DX009 (ip), vehicle: saline with Tween-80

Measured: T/C

CCCCOB(CI)OCCCC
inactive: dose: 6.25 mg/kg/injection, schedule: Q04DX003 (ip), vehicle: saline 110 % of control | dose: 12.5 mg/kg/injection, schedule: Q04DX003 (ip), vehicle: saline 100 % of control | dose: 25.0 mg/kg/injection, schedule: Q04DX003 (ip), vehicle: saline 110 % of control

Cc1cccc(-c2cc3ccccc3c(Cl)n2)n1
inactive: dose: 100.0 mg/kg/injection, schedule: Q01DX001 (ip), vehicle: saline with Tween-80 104 % of control | dose: 200.0 mg/kg/injection, schedule: Q01DX001 (ip), vehicle: saline with Tween-80 100 % of control | dose: 400.0 mg/kg/injection, schedule: Q01DX001 (ip), vehicle: saline with Tween-80 91 % of control

Nc1cc2[nH]cnc2c(=O)[nH]1
inactive: dose: 6.25 mg/kg/injection, schedule: Q01DX009 (ip), vehicle: suspension in saline 109 % of control and 95 % of control | dose: 12.5 mg/kg/injection, schedule: Q01DX009 (ip), vehicle: suspension in saline 101 % of control and 113 % of control and 97 % of control | dose: 25.0 mg/kg/injection, schedule: Q01DX009 (ip), vehicle: Klucel (hydroxypropylcellulose) (HPC) 100 % of control | dose: 25.0 mg/kg/injection, schedule: Q01DX009 (ip), vehicle: suspension in saline 103 % of control and 107 % of control and 96 % of control | [1] 108 % of control | dose: 100.0 mg/kg/injection, schedule: Q01DX009 (ip), vehicle: suspension in saline 99 % of control and 113 % of control | [2] 100 % of control | [3] 95 % of control | dose: 200.0 mg/kg/injection, schedule: Q01DX009 (ip), vehicle: suspension in saline 86 % of control and 87 % of control

NCC(=O)NC(Cc1ccccc1)C(=O)NCC(=O)O (centres undefined) (H-Gly-[ξF]-Gly-OH)
inactive: [4] 100 % of control | [5] 104 % of control | dose: 200.0 mg/kg/injection, schedule: Q01DX005 (ip), vehicle: Klucel (hydroxypropylcellulose) (HPC) 100 % of control

O=C(O)/C=C/C(=O)NCc1ccco1
inactive: [6] 100 % of control | [7] 90 % of control | [3] 109 % of control | [8] 95 % of control | [9] 100 % of control | [10] 100 % of control

CC(=O)NC(CC(C)C(C)=O)C(=O)O (centres undefined)
inactive: dose: 50.0 mg/kg/injection, schedule: Q01DX005 (ip), vehicle: saline 92 % of control | dose: 100.0 mg/kg/injection, schedule: Q01DX005 (ip), vehicle: saline 95 % of control | dose: 200.0 mg/kg/injection, schedule: Q01DX005 (ip), vehicle: saline 92 % of control

O=c1[nH]nc(-c2ccc(Cl)cc2)c2c1[nH]c1ccccc12
inactive: [11] 98 % of control | [12] 97 % of control

CNC(=O)NNC(=O)c1ccccc1Cl
inactive: [11] 106 % of control | [12] 101 % of control | [13] 103 % of control

C=C(C)C(=NC(C)(C)C)Nc1ccc(Cl)cc1
inactive: dose: 12.5 mg/kg/injection, schedule: Q01DX005 (ip), vehicle: Klucel (hydroxypropylcellulose) (HPC) 104 % of control and 106 % of control | dose: 25.0 mg/kg/injection, schedule: Q01DX005 (ip), vehicle: Klucel (hydroxypropylcellulose) (HPC) 106 % of control and 109 % of control | dose: 25.0 mg/kg/injection, schedule: Q01DX009 (ip), vehicle: saline with Tween-80 98 % of control and 100 % of control | [4] 110 % of control and 116 % of control and 123 % of control | [14] 100 % of control and 102 % of control and 109 % of control | [5] 112 % of control and 116 % of control and 120 % of control | [6] 109 % of control and 111 % of control and 119 % of control | [3] 118 % of control

CCCCCCCCCCCCCCCN1CCS(=O)(=O)CC1
inactive: [1] 98 % of control | dose: 100.0 mg/kg/injection, schedule: Q01DX009 (ip), vehicle: Klucel (hydroxypropylcellulose) (HPC) 94 % of control | [2] 94 % of control

CC(C)(C)C1CCC(C(=O)O)CC1 (centres undefined)
inactive: [14] 91 % of control | dose: 50.0 mg/kg/injection, schedule: Q04DX003 (ip), vehicle: saline with Tween-80 100 % of control | [6] 100 % of control and 91 % of control | [7] 95 % of control | [3] 91 % of control and 100 % of control | [8] 109 % of control and 95 % of control | [9] 91 % of control | [10] 100 % of control

CC(Cc1ccccc1)N(C)Cc1ccc(-c2ccc(Cl)cc2)o1 (centres undefined)
inactive: [11] 110 % of control | [12] 107 % of control | [13] 107 % of control
